Measurements taken from PMC6838110 (Nature Communications, 2019).

How the values were obtained:
HBCx-17 TNBC PDX = assay: PDX efficacy study; type: in vivo, mice
Description: (§1) Immunocompromised SCID (C.B-17/IcrHan®Hsd-Prkdc^scid) or Hsd:Athymic Nude-Foxn1^nu female mice (Envigo) were used for tumour implantation. […] When dosed twice daily, the time between the morning and evening doses was 8 h. Targeted irradiation of 2 Gy was delivered over 2 min daily over the first 5 days of treatment. Liposomal doxorubicin (Doxoves) was diluted in physiological saline and intravenously dosed at 2.5 or 5 mg kg^−1 once per week. Olaparib was formulated in 10% DMSO/30% Kleptose and orally dosed at 100 mg kg^−1 once daily. […] Statistical significance was evaluated using a one-tailed t-test. All in vivo studies complied with all relevant ethical regulations for animal testing and research, followed AstraZeneca’s global bioethics policy and received ethical approval from the AstraZeneca ethical committee. HBCx-17 PDX study was carried out at XenTech, France in accordance with French regulatory legislation concerning the protection of laboratory animals. CTG-703, CTG-0828 and CTG-0149 PDX studies were carried out at Champions Oncology, Inc., USA in accordance to the guidelines of the Institutional Animal Care and Use Committee (IACUC) of Champions Oncology and the USA regulatory legislation. CDX and OV2022 PDX studies were conducted in the UK in accordance with UK Home Office legislation, the Animal Scientific Procedures Act 1986 and the Home Office project licences 70/8839, 70/8894 and P0EC1FFDF. […]
SCID mice were surgically implanted subcutaneously with tumour fragments from donor mice. Tumours were measured (length x width) by bilateral Vernier calliper measurements and tumour volume calculated using Mousetrap software. Mice were randomized into […]
treatment groups when mean tumour volume reached ~0.2 cm 3.

[1] = system: BT474 breast cancer xenografts; assay: Xenograft efficacy study with liposomal doxorubicin; type: in vivo, mice; conditions: AZD7648 37.5 mg kg−1 bid × 28 days, single agent
Description: as §1, with “legislation.” for “legislation. CDX and OV2022 PDX studies were conducted in the UK in accordance with UK Home Office legislation, the Animal Scientific Procedures Act 1986 and the Home Office project licences 70/8839, 70/8894 and P0EC1FFDF.”
Tumours were measured (length x width) by bilateral Vernier calliper measurements and tumour volume calculated using Mousetrap software. […]

Cc1cc2ncnn2cc1Nc1ncc2c(n1)n(C1CCOCC1)c(=O)n2C [AZD7648]
TGI (HBCx-17 TNBC PDX; AZD7648 75 mg kg−1 bid single agent (olaparib study)): 65% | TGI (HBCx-17 TNBC PDX; AZD7648 single agent (doxorubicin study)): 25% | TGI [1]: 20%
